According to patent US6511961B1, “Cyclic peptides and medicinal use thereof” (Toray Industries, Inc., priority 1997, dated 2003):
Read-outs that look alike come from different tables or passages of the source.

Conditions: 20-membered ring
[1] = disulfide bond, K3[Fe(CN)6]/NH3 pH 7.5-8, water
[2] = amide bond, with chain assembly

CC[C@H](C)[C@@H]1NC(=O)[C@@H](N)CSSC[C@@H](C(=O)O)NC(=O)[C@@H](c2ccccc2)NC(=O)[C@H](Cc2c[nH]cn2)NC(=O)[C@H](CC(=O)O)NC1=O [C*IDHdPhgC*]
ring closure, yield after HPLC (from H-Cys(Acm)-Ile-Asp-His-dPhg-Cys(Acm)-OH, disulfide bond, AgOTf/anisole/TFA, then DMSO/HCl, 50% DMSO-1N HCl, 2 steps): 37%

CC[C@H](C)[C@@H]1NC(=O)[C@@H](N)CSSC[C@@H](C(=O)O)NC(=O)[C@H](CC(C)C)NC(=O)[C@H](CCc2ccccc2)NC(=O)[C@H](CC(=O)O)NC1=O [C*IDHphLC*]
ring closure, yield after HPLC (from H-Cys(Acm)-Ile-Asp-Hph-Leu-Cys(Acm)-OH, disulfide bond, AgOTf/anisole/TFA, then DMSO/HCl, 50% DMSO-1N HCl, 2 steps): 38%

CC[C@H](C)[C@@H]1NC(=O)[C@@H](N)CSSC[C@@H](C(=O)O)NC(=O)[C@H](CC(C)C)NC(=O)[C@H](c2ccccc2)NC(=O)[C@H](CC(=O)O)NC1=O [C*IDPhgLC*]
ring closure, yield after HPLC (from H-Cys(Acm)-Ile-Asp-Phg-Leu-Cys(Acm)-OH, disulfide bond, AgOTf/anisole/TFA, then DMSO/HCl, 50% DMSO-1N HCl, 2 steps): 48%

CC[C@H](C)[C@@H]1NC(=O)[C@@H](N)CSSC[C@@H](C(=O)O)NC(=O)[C@H](CC(C)C)NC(=O)[C@H](C(C)(C)C)NC(=O)[C@H](CC(=O)O)NC1=O [C*IDTleLC*]
ring closure, yield after HPLC (from H-Cys(Acm)-Ile-Asp-Tle-Leu-Cys(Acm)-OH, disulfide bond, AgOTf/anisole/TFA, then DMSO/HCl, 50% DMSO-1N HCl, 2 steps): 23%

CC[C@H](C)[C@@H]1NC(=O)[C@@H](N)CSSC[C@@H](C(=O)O)NC(=O)[C@H](CC(C)C)NC(=O)[C@H](Cc2c[nH]c3ccccc23)NC(=O)[C@H](CC(=O)O)NC1=O [C*IDWLC*]
ring closure, yield after HPLC (from H-Cys(Acm)-Ile-Asp-Trp-Leu-Cys(Acm)-OH, disulfide bond, AgOTf/anisole/TFA, then DMSO/HCl, 50% DMSO-1N HCl, 2 steps): 47%

CC[C@H](C)[C@@H]1NC(=O)[C@@H](N)CSSC[C@@H](C(=O)O)NC(=O)[C@H](CC(C)C)NC(=O)[C@@H](Cc2c[nH]cn2)NC(=O)[C@H](CC(=O)O)NC1=O [C*IDdHLC*]
ring closure, yield after HPLC (from H-Cys(Acm)-Ile-Asp-dHis-Leu-Cys(Acm)-OH, disulfide bond, AgOTf/anisole/TFA, then DMSO/HCl, 50% DMSO-1N HCl, 2 steps): 74%

CC[C@H](C)[C@@H]1NC(=O)[C@@H](N)CSSC[C@@H](C(=O)O)NC(=O)[C@H](CC(C)C)NC(=O)[C@@H](c2ccccc2)NC(=O)[C@H](CC(=O)O)NC1=O [C*IDdPhgLC*]
ring closure, yield after HPLC (from H-Cys(Acm)-Ile-Asp-dPhg-Leu-Cys(Acm)-OH, disulfide bond, AgOTf/anisole/TFA, then DMSO/HCl, 50% DMSO-1N HCl, 2 steps): 8%

CC[C@H](C)[C@@H]1NC(=O)[C@@H](N)CSSC[C@@H](C(=O)O)NC(=O)[C@H](CC(C)C)NC(=O)[C@H](Cc2c[nH]cn2)NC(=O)[C@H](CCC(=O)O)NC1=O [C*IEHLC*]
ring closure, yield after HPLC (from H-Cys(Acm)-Ile-Glu-His-Leu-Cys(Acm)-OH, disulfide bond, AgOTf/anisole/TFA, then DMSO/HCl, 50% DMSO-1N HCl, 2 steps): 71%

CC[C@H](C)[C@@H]1NC(=O)[C@@H](N)CSSC[C@@H](C(=O)O)NC(=O)[C@H](CC(C)C)NC(=O)[C@H](Cc2c[nH]cn2)NC(=O)[C@H](CCO)NC1=O [C*IHseHLC*]
ring closure, yield after HPLC (from H-Cys(Acm)-Ile-Hse-His-Leu-Cys(Acm)-OH, disulfide bond, AgOTf/anisole/TFA, then DMSO/HCl, 50% DMSO-1N HCl, 2 steps): 56%

CC[C@H](C)[C@@H]1NC(=O)[C@@H](N)CSSC[C@@H](C(=O)O)NC(=O)[C@H](CC(C)C)NC(=O)[C@H](Cc2c[nH]cn2)NC(=O)[C@H](CCS(C)(=O)=O)NC1=O [C*IMet(O2)HLC*]
ring closure, yield after HPLC (from H-Cys(Acm)-Ile-Met(O2)-His-Leu-Cys(Acm)-OH, disulfide bond, AgOTf/anisole/TFA, then DMSO/HCl, 50% DMSO-1N HCl, 2 steps): 68%

CC[C@H](C)[C@@H]1NC(=O)[C@@H](N)CSSC[C@@H](C(=O)O)NC(=O)[C@H](CC(C)C)NC(=O)[C@H](Cc2c[nH]cn2)NC(=O)[C@H](CC(N)=O)NC1=O [C*INHLC*]
ring closure, yield after HPLC (from H-Cys(Acm)-Ile-Asn-His-Leu-Cys(Acm)-OH, disulfide bond, AgOTf/anisole/TFA, then DMSO/HCl, 50% DMSO-1N HCl, 2 steps): 85%

CC[C@H](C)[C@@H]1NC(=O)[C@@H](N)CSSC[C@@H](C(N)=O)NC(=O)[C@H](CC(C)C)NC(=O)[C@H](Cc2c[nH]cn2)NC(=O)[C@H](CC(N)=O)NC1=O [C*INHLC*—NH2]
ring closure, yield after HPLC (from H-Cys(Acm)-Ile-Asn-His-Leu-Cys(Acm)-NH2, disulfide bond, AgOTf/anisole/TFA, then DMSO/HCl, 50% DMSO-1N HCl, 2 steps): 18%

CC[C@H](C)[C@@H]1NC(=O)[C@@H](N)CSSC[C@@H](C(=O)O)NC(=O)[C@H](CC(C)C)NC(=O)[C@H](Cc2c[nH]cn2)NC(=O)[C@H](COC)NC1=O [C*IS(OMe)HLC*]
ring closure, yield after HPLC (from H-Cys(Acm)-Ile-Ser(OMe)-His-Leu-Cys(Acm)-OH, disulfide bond, AgOTf/anisole/TFA, then DMSO/HCl, 50% DMSO-1N HCl, 2 steps): 52%

CC[C@H](C)[C@@H]1NC(=O)[C@@H](N)CSSC[C@@H](C(=O)O)NC(=O)[C@H](CC(C)C)NC(=O)[C@H](Cc2c[nH]cn2)NC(=O)[C@H](Cc2ccc(O)cc2)NC1=O [C*IYHLC*]
ring closure, yield after HPLC (from H-Cys(Acm)-Ile-Tyr-His-Leu-Cys(Acm)-OH, disulfide bond, AgOTf/anisole/TFA, then DMSO/HCl, 50% DMSO-1N HCl, 2 steps): 52%

CC(C)C[C@@H]1NC(=O)[C@H](Cc2c[nH]cn2)NC(=O)[C@H](CC(=O)O)NC(=O)[C@H](c2ccccc2)NC(=O)[C@@H](N)CSSC[C@@H](C(=O)O)NC1=O [C*PhgDHLC*]
ring closure, yield after HPLC (from H-Cys(Acm)-Phg-Asp-His-Leu-Cys(Acm)-OH, disulfide bond, AgOTf/anisole/TFA, then DMSO/HCl, 50% DMSO-1N HCl, 2 steps): 64%

CC(C)C[C@@H]1NC(=O)[C@H](Cc2c[nH]cn2)NC(=O)[C@H](CC(=O)O)NC(=O)[C@@H]2Cc3ccccc3CN2C(=O)[C@@H](N)CSSC[C@@H](C(=O)O)NC1=O [C*TicDHLC*]
ring closure, yield after HPLC (from H-Cys(Acm)-Tic-Asp-His-Leu-Cys(Acm)-OH, disulfide bond, AgOTf/anisole/TFA, then DMSO/HCl, 50% DMSO-1N HCl, 2 steps): 30%

CC(C)C[C@@H]1NC(=O)[C@H](Cc2c[nH]cn2)NC(=O)[C@H](CC(=O)O)NC(=O)[C@H](C(C)(C)C)NC(=O)[C@@H](N)CSSC[C@@H](C(=O)O)NC1=O [C*TleDHLC*]
ring closure, yield after HPLC (from H-Cys(Acm)-Tle-Asp-His-Leu-Cys(Acm)-OH, disulfide bond, AgOTf/anisole/TFA, then DMSO/HCl, 50% DMSO-1N HCl, 2 steps): 69%

CC(C)C[C@@H]1NC(=O)[C@H](Cc2c[nH]cn2)NC(=O)[C@H](CC(=O)O)NC(=O)[C@H](C(C)C)NC(=O)[C@@H](N)CSSC[C@@H](C(=O)O)NC1=O [C*VDHLC*]
ring closure, yield after HPLC (from H-Cys(Acm)-Val-Asp-His-Leu-Cys(Acm)-OH, disulfide bond, AgOTf/anisole/TFA, then DMSO/HCl, 50% DMSO-1N HCl, 2 steps): 75%

CC[C@@H](C)[C@H]1NC(=O)[C@@H](N)CSSC[C@@H](C(=O)O)NC(=O)[C@H](CC(C)C)NC(=O)[C@H](Cc2c[nH]cn2)NC(=O)[C@H](CC(=O)O)NC1=O [C*dIDHLC*]
ring closure, yield after HPLC (from H-Cys(Acm)-dIle-Asp-His-Leu-Cys(Acm)-OH, disulfide bond, AgOTf/anisole/TFA, then DMSO/HCl, 50% DMSO-1N HCl, 2 steps): 72%

CC(C)C[C@@H]1NC(=O)[C@H](CO)NC(=O)[C@H](CC(=O)O)NC(=O)[C@@H](CC(C)C)NC(=O)[C@@H](N)CSSC[C@@H](C(=O)O)NC1=O [C*dLDSLC*]
ring closure, yield after HPLC (from H-Cys(Acm)-dLeu-Asp-Ser-Leu-Cys(Acm)-OH, disulfide bond, AgOTf/anisole/TFA, then DMSO/HCl, 50% DMSO-1N HCl, 2 steps): 77%

CC(C)C[C@@H]1NC(=O)[C@@H](CO)NC(=O)[C@H](CC(=O)O)NC(=O)[C@@H](CC(C)C)NC(=O)[C@@H](N)CSSC[C@@H](C(=O)O)NC1=O [C*dLDdSLC*]
ring closure, yield after HPLC (from H-Cys(Acm)-dLeu-Asp-dSer-Leu-Cys(Acm)-OH, disulfide bond, AgOTf/anisole/TFA, then DMSO/HCl, 50% DMSO-1N HCl, 2 steps): 62%

CC(C)C[C@@H]1NC(=O)[C@H](Cc2c[nH]cn2)NC(=O)[C@H](CC(=O)O)NC(=O)[C@@H](c2ccccc2)NC(=O)[C@@H](N)CSSC[C@@H](C(=O)O)NC1=O [C*dPhgDHLC*]
ring closure, yield after HPLC (from H-Cys(Acm)-dPhg-Asp-His-Leu-Cys(Acm)-OH, disulfide bond, AgOTf/anisole/TFA, then DMSO/HCl, 50% DMSO-1N HCl, 2 steps): 55%

CC[C@H](C)[C@@H]1NC(=O)CCSSC[C@@H](C(=O)O)NC(=O)[C@H](CC(C)C)NC(=O)[C@H](Cc2c[nH]cn2)NC(=O)[C@H](CC(=O)O)NC1=O [Mpr*IDHLC*]
ring closure, yield after HPLC (from Mpr(Acm)-Ile-Asp-His-Leu-Cys(Acm)-OH, disulfide bond, AgOTf/anisole/TFA, then DMSO/HCl, 50% DMSO-1N HCl, 2 steps): 33%

CC[C@H](C)[C@@H]1NC(=O)[C@@H](N)C(C)(C)SSC[C@@H](C(=O)O)NC(=O)[C@H](CC(C)C)NC(=O)[C@H](Cc2c[nH]cn2)NC(=O)[C@H](CC(=O)O)NC1=O [Pen*IDHLC*]
ring closure, yield after HPLC (from H-Pen(Acm)-Ile-Asp-His-Leu-Cys(Acm)-OH, disulfide bond, AgOTf/anisole/TFA, then DMSO/HCl, 50% DMSO-1N HCl, 2 steps): 30%

CC[C@H](C)[C@@H]1NC(=O)[C@H](N)CSSC[C@@H](C(=O)O)NC(=O)[C@H](CC(C)C)NC(=O)[C@H](Cc2c[nH]cn2)NC(=O)[C@H](CC(=O)O)NC1=O [dC*IDHLC*]
ring closure, yield after HPLC (from H-dCys(Acm)-Ile-Asp-His-Leu-Cys(Acm)-OH, disulfide bond, AgOTf/anisole/TFA, then DMSO/HCl, 50% DMSO-1N HCl, 2 steps): 39%

C*IDSLC*
ring closure, yield after HPLC [1]: 62%

C*IDTLC*
ring closure, yield after HPLC [1]: 70%

C*IDYLC*
ring closure, yield after HPLC (disulfide bond, K3[Fe(CN)6]/NH3 pH 7.5-8, water, 0.43 mM): 61%

D(CO—)ChgMet(O2)PhgLDpr(NH—)
ring closure, yield after HPLC [2]: 7%

D(CO—)ChgMet(O2)dPhgLDpr(NH—)
ring closure, yield after HPLC [2]: 10%
